ChEMBL document CHEMBL5727835, “Alkynyl dihydroquinoline sulfonamide compounds” (2020)

What was measured:
[1] = Nav 1.7 or Nav 1.5 IWQ In Vitro Assay: HEK 293 Cells stably transfected with either Nav 1.7 or Nav 1.5 were recorded in population patch-clamp mode with the IonWorks® Quattro automated electrophysiology system in accordance with the manufacturer's specifications (Molecular Devices, LLC, Sunnyvale, Calif.). Sodium channel currents were measured in response to a train of depolarizations that induced successively greater inactivation.Cells were held at −110 mV for three seconds (Nav 1.7) or half a second (Nav 1.5) from a holding voltage of −15 mV, then put through a series of 26 pulses of 150 msec duration to −20 mV at a frequency of 5 Hz. Cells were then left unclamped for a period of 3 to 8 minutes while a single concentration of test compound was added. Cells were then reclamped and put through the same voltage protocol. Current at the end of the 26th pulse to −20 mV was subtracted from the peak current evoked by the 26th pulse to −20 mV to correct for leak current. Percent block was calculated for each concentration in duplicate, and IC50 curves were fitted to percent block as a function of concentration.; details: HEK293
[2] = Nav 1.7 In Vitro PX Assay: HEK 293 cells stably transfected with human Nav1.7 were recorded in whole cell voltage clamp mode with the PatchXpress automated electrophysiology system (Molecular Devices, LLC, Sunnyvale, Calif.). Compound effects were measured on a partially inactivated state of the sodium channel. Cells were clamped to a holding potential yielding 20 to 50% inactivation. To elicit sodium current, channels were activated by pulsing to −10 mV for 20 msec. This voltage protocol was repeated at a rate of 0.1 Hz throughout the experiment. A single concentration of test compound was applied to cells for a duration of 3 minutes. Peak sodium current was measured at the end of the compound addition period to determine percent inhibition. Three to five cells were tested per concentration, and IC50 curves were fitted to percent inhibition as a function of concentration.; details: HEK293

SMILES | IC50 [1] | IC50 [2]
COc1cc(C#CC2CCCC2)c(F)cc1-n1c(=O)ccc2cc(S(=O)(=O)Nc3ccon3)ccc21 | 4.53 nM | 17.3 nM
COc1cc(C#CC2(OCC(F)(F)F)CCCC2)c(F)cc1-n1c(=O)ccc2cc(S(=O)(=O)Nc3ccon3)ccc21 | 9.73 nM | 33.8 nM
COc1cc(C#C[C@@H]2C[C@@H]2C(F)(F)F)c(F)cc1-n1c(=O)ccc2cc(S(=O)(=O)Nc3ccon3)ccc21 | 5.5 nM | 139 nM
COc1cc(C#CC2CCCC2)c(Cl)cc1-n1c(=O)ccc2cc(S(=O)(=O)Nc3ccon3)ccc21 | 10 nM | 18.6 nM
COc1cc(C#CC2(C(F)(F)F)CC2)c(F)cc1-n1c(=O)ccc2cc(S(=O)(=O)Nc3ccon3)ccc21 | 8 nM | 
COc1cc(C#C[C@H]2C[C@@H]2C(F)(F)F)c(F)cc1-n1c(=O)ccc2cc(S(=O)(=O)Nc3ccon3)ccc21 |  | 210 nM
